Data as given in US12054469B2, “Benzothiophene-based selective estrogen receptor downregulator compounds” (The Board of Trustees of the University of Illinois, priority 2015, dated 2024).

Tests used:
estrogen receptor = estrogen receptor (Homo sapiens (Human), UniProt P03372); experiment: Western blot analysis of estrogen receptor downregulation; type: cell-based; settings: 10 nM
Protocol: Whole-cell extracts of cultured cells were prepared in lysis buffer (200 mmol/L Tris, 1% Triton X-100, 5 mmol/L EDTA) with protease and phosphatase inhibitor cocktails (1:50, both from Sigma-Aldrich) after scraping from the culture plates. Protein concentration was measured using the Bradford method (Bio-Rad). Proteins were separated under denaturing conditions and blotted onto nitrocellulose membrane (Bio-Rad) using a wet transfer system (Bio-Rad). Images of blots were acquired on a Bio-Rad ChemiDoc System following incubation with SuperSignal West Dura luminol solution (Thermo Fisher Scientific).

MCF-7:TAM1 tumors = experiment: MCF-7:TAM1 xenograft model of endocrine-resistant ER+ breast cancer; type: in vivo, mice; settings: 100 mg/kg, oral gavage daily
MCF-7:WS8 cells = experiment: Cell viability of MCF7:WS8, DNA content assay; type: cell-based, human
ERα = ERα (Homo sapiens (Human), UniProt P03372); experiment: In-cell western (ICW) ER downregulation/degradation in MCF-7:WS8 cells; type: cell-based; settings: Table 2; read-out: IC50 of ER downregulation from in-cell western blot experiments
ERα, sequence (P03372 whole entry): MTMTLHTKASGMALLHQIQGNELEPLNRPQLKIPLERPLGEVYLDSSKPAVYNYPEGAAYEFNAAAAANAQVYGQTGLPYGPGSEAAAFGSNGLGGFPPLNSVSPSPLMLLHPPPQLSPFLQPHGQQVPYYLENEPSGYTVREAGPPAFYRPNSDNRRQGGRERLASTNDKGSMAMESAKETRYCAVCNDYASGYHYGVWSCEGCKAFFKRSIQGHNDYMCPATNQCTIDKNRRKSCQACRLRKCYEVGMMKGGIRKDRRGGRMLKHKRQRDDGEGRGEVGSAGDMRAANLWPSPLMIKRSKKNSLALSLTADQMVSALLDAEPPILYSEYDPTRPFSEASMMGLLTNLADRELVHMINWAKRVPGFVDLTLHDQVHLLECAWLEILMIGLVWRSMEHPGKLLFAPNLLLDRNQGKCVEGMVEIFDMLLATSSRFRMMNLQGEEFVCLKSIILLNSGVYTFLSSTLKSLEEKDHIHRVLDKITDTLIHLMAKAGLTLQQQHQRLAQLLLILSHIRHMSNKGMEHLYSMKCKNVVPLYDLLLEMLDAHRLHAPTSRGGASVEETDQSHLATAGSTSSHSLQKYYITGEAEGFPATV

estrogen receptor, sequence (P03372 whole entry): as above

Structure (SMILES) | Estrogen receptor downregulation (western blot) (estrogen receptor) | MCF-7WS8 IC50 (MCF-7:WS8 cells) | other results
Cc1ccccc1C(=O)c1sc2cc(O)ccc2c1Oc1ccc(/C=C/C(=O)O)cc1 [Compound 5, (E)-3-(4-((6-Hydroxy-2-(2-methylbenzoyl)benzo[b]thiophen-3-yl)oxy)phenyl) acrylic acid] | downregulate the estrogen receptor | – | –
CC/C(=C(\c1ccccc1)c1ccc(OCCN(C)C)cc1)c1ccccc1 [Tamoxifen, tamoxifen] | – | – | Effect on tumor (MCF-7:TAM1 tumors): entirely without effect
Cc1cc(F)ccc1C(=O)c1sc2cc(O)ccc2c1Oc1ccc(/C=C/C(=O)O)cc1 [Compound 1, (E)-3-(4-((2-(4-Fluoro-2-methylbenzoyl)-6-hydroxybenzo[b]thiophen-3-yl)oxy)phenyl)acrylic acid] | downregulate the estrogen receptor | – | –
O=C(O)/C=C/c1ccc(Oc2c(C(=O)c3ccc(O)cc3)sc3cc(O)ccc23)cc1 [Compound 2, (E)-3-(4-((6-Hydroxy-2-(4-hydroxybenzoyl)benzo[b]thiophen-3-yl)oxy)phenyl) acrylic acid] | – | No Inhiibition | –
Cc1ccc(C(=O)c2sc3cc(O)ccc3c2Oc2ccc(NC(=O)C(=O)O)cc2)c(C)c1 [Compound 19, 2-((4-((2-(2,4-Dimethylbenzoyl)-6-hydroxybenzo[b]thiophen-3-yl)oxy)phenyl)amino)-2-oxoacetic acid] | – | No inhibition | –
CCc1ccccc1C(=O)c1sc2cc(O)ccc2c1Oc1ccc(/C=C/C(=O)O)cc1 [Compound 3, (E)-3-(4-((2-(2-Ethylbenzoyl)-6-hydroxybenzo[b]thiophen-3-yl)oxy)phenyl) acrylic acid] | downregulate the estrogen receptor | – | –
Cc1cc(F)ccc1C(=O)c1sc2cc(O)ccc2c1Oc1ccc(NC(=O)C(=O)O)cc1 [Compound 18, 2-((4-((2-(4-Fluoro-2-methylbenzoyl)-6-hydroxybenzo[b]thiophen-3-yl)oxy)phenyl)amino)-2-oxoacetic acid] | – | No Inhibition | –
Cc1ccsc1C(=O)c1sc2cc(O)ccc2c1Oc1ccc(/C=C/C(=O)O)cc1 [Compound 7, (E)-3-(4-((6-Hydroxy-2-(3-methylthiophene-2-carbonyl)benzo[b]thiophen-3-yl)oxy)phenyl) acrylic acid] | downregulate the estrogen receptor | – | IC50 (ERα): 4.6 nM
Cc1ccc(F)cc1C(=O)c1sc2cc(O)ccc2c1Oc1ccc(/C=C/C(=O)O)cc1 [Compound 6] | downregulate the estrogen receptor | – | –
